Assay results from ChEMBL document CHEMBL1139195, “Further studies of tyrosine surrogates in opioid receptor peptide ligands” (Bioorg Med Chem Lett, 2007).
*1 amine or outer side, *2 acyl side, *3 side chain or, on linkers, in order; H or OH if unused. Where a SMILES comes first, the peptide text is derived from it. [ ]: non-standard residue; d: D form. Ala(2-NH2-benzothiazol-6-yl) = Nc1nc2ccc(C[C@H](N)C(=O)O)cc2s1; Phe(2,6-Me2,4-CONH2) = Cc1cc(C(N)=O)cc(C)c1C[C@H](N)C(=O)O; Phe(3-CONH2) = NC(=O)c1cccc(C[C@H](N)C(=O)O)c1; Phe(4-CONH2) = NC(=O)c1ccc(C[C@H](N)C(=O)O)cc1; X1 = O=C([C@H](Cc1cc[n+]([O-])cc1)N[*:1])[*:2]

What was measured:
[1] = target: Kappa-type opioid receptor (Homo sapiens, UniProt P41145)
Sequence of Kappa-type opioid receptor (P41145 whole entry): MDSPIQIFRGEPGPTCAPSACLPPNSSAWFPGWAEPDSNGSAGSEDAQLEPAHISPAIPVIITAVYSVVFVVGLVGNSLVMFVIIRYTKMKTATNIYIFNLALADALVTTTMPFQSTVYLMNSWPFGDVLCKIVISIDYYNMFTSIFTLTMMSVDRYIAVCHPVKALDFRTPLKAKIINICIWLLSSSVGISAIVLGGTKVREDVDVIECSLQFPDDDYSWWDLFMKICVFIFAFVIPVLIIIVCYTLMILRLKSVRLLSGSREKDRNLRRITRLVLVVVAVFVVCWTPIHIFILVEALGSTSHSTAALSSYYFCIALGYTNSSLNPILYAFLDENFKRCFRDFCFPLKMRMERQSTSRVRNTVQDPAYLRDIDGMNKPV

[2] = target: T1, Mu-type opioid receptor (Homo sapiens, UniProt P35372)
T1 sequence (P35372 whole entry): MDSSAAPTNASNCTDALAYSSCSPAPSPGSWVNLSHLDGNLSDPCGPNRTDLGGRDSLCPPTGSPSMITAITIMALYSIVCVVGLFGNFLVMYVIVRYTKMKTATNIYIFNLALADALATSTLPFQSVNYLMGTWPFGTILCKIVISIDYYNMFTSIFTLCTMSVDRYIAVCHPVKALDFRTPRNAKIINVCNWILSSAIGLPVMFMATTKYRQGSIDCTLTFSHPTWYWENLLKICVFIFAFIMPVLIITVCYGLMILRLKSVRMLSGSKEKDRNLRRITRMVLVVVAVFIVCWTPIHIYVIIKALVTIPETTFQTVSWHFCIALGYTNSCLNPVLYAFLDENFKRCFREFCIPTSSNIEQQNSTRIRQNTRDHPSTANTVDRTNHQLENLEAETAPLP

[3] = target: T2, Delta-type opioid receptor (Homo sapiens, UniProt P41143)
T2 sequence (P41143 whole entry): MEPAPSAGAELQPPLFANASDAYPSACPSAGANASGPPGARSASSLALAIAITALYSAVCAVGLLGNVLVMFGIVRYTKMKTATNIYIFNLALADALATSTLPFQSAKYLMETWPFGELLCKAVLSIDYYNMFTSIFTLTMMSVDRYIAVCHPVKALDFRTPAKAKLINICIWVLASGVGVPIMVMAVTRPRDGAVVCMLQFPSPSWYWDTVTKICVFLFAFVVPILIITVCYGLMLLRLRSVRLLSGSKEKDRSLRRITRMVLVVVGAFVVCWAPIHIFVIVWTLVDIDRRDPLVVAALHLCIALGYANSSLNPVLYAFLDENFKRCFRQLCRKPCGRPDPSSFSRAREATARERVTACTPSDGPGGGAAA

[4] = target: T2, Delta-type opioid receptor; type: functional
[5] = target: T1, Mu-type opioid receptor; type: functional

**Q.** CC(C)C[C@@H](NC(=O)[C@H](Cc1ccccc1)NC(=O)CNC(=O)[C@@H](C)NC(=O)[C@@H](N)Cc1cc[n+]([O-])cc1)C(=O)O was tested. Which Ki [1] did it give?
**A.** > 10000 nM

**Q.** And the Ki [2]?
**A.** > 10000 nM

**Q.** And the Ki [3]?
**A.** > 10000 nM

**Q.** For CC(C)C[C@H](NC(=O)[C@H](Cc1ccccc1)NC(=O)CNC(=O)CNC(=O)[C@@H](N)Cc1cc[n+]([O-])cc1)C(=O)O (H-[X1]GGFL-OH), which Ki [1] is on record?
**A.** > 10000 nM

**Q.** What about the Ki [2] of the same molecule?
**A.** > 10000 nM

**Q.** And the Ki [3]?
**A.** > 10000 nM

**Q.** Which Ki [1] does the source give for CC(C)C[C@@H](NC(=O)[C@H](Cc1ccccc1)NC(=O)CNC(=O)[C@@H](C)NC(=O)[C@@H](N)Cc1ccc2nc(N)sc2c1)C(=O)O here?
**A.** > 10000 nM

**Q.** And the Ki [2]?
**A.** 1200 nM

**Q.** And the EC50 [4]?
**A.** 150 nM

**Q.** And the Ki [3]?
**A.** 10 nM

**Q.** Which Ki [1] does the source give for CSCC[C@H](NC(=O)[C@H](Cc1ccccc1)NC(=O)CNC(=O)[C@@H](C)NC(=O)[C@@H](N)Cc1ccc2nc(N)sc2c1)C(=O)O here?
**A.** > 10000 nM

**Q.** And the Ki [2]?
**A.** 100 nM

**Q.** What about the EC50 [5] of the same molecule?
**A.** 350 nM

**Q.** What about the EC50 [4] of the same molecule?
**A.** 24 nM

**Q.** And the Ki [3]?
**A.** 1 nM

**Q.** For Cc1cc(C(N)=O)cc(C)c1C[C@H](N)C(=O)N[C@H](C)C(=O)NCC(=O)N[C@@H](Cc1ccccc1)C(=O)N[C@H](CC(C)C)C(=O)O, which Ki [1] is on record?
**A.** 2400 nM

**Q.** And the Ki [2]?
**A.** 9.8 nM

**Q.** And the EC50 [5]?
**A.** 49 nM

**Q.** And the EC50 [4]?
**A.** 2.5 nM

**Q.** And the Ki [3]?
**A.** 0.78 nM

**Q.** For CC(C)C[C@H](NC(=O)[C@H](Cc1ccccc1)NC(=O)CNC(=O)[C@@H](CO)NC(=O)[C@@H](N)Cc1cc[n+]([O-])cc1)C(=O)N[C@H](C(=O)O)[C@@H](C)O, which Ki [1] is on record?
**A.** > 10000 nM

**Q.** And the Ki [2]?
**A.** > 10000 nM

**Q.** And the Ki [3]?
**A.** 360 nM

**Q.** CC1(C)SSC(C)(C)[C@@H](NC(=O)[C@@H](N)Cc2ccc(C(N)=O)cc2)C(=O)NCC(=O)N[C@@H](Cc2ccccc2)C(=O)N[C@H]1C(=O)O was tested. Which Ki [1] did it give?
**A.** > 10000 nM

**Q.** What about the Ki [2] of the same molecule?
**A.** > 10000 nM

**Q.** And the EC50 [4]?
**A.** 320 nM

**Q.** What about the Ki [3] of the same molecule?
**A.** 19 nM

**Q.** What does the source list for CC(C)C[C@H](NC(=O)[C@H](Cc1ccccc1)NC(=O)CNC(=O)[C@@H](CO)NC(=O)[C@@H](N)Cc1cccc(C(N)=O)c1)C(=O)N[C@H](C(=O)O)[C@@H](C)O?
**A.** Ki [1]: > 10000 nM; Ki [2]: 1100 nM; EC50 [4]: 730 nM; Ki [3]: 42 nM

**Q.** Which Ki [1] does the source give for CC(C)C[C@H](NC(=O)[C@H](Cc1ccccc1)NC(=O)CNC(=O)CNC(=O)[C@@H](N)Cc1ccc2nc(N)sc2c1)C(=O)O (H-[Ala(2-NH2-benzothiazol-6-yl)]GGFL-OH) here?
**A.** > 10000 nM

**Q.** And the Ki [2]?
**A.** 1200 nM

**Q.** What about the EC50 [4] of the same molecule?
**A.** 580 nM

**Q.** What about the Ki [3] of the same molecule?
**A.** 19 nM

**Q.** How did the Ki [1] turn out when Cc1cc(C(N)=O)cc(C)c1C[C@H](N)C(=O)N[C@H](CO)C(=O)NCC(=O)N[C@@H](Cc1ccccc1)C(=O)N[C@@H](CC(C)C)C(=O)N[C@H](C(=O)O)[C@@H](C)O was run?
**A.** > 10000 nM

**Q.** What about the Ki [2] of the same molecule?
**A.** 19 nM

**Q.** What about the EC50 [5] of the same molecule?
**A.** 250 nM

**Q.** And the EC50 [4]?
**A.** 3.5 nM

**Q.** What about the Ki [3] of the same molecule?
**A.** 1.2 nM

**Q.** How did the Ki [1] turn out when Cc1cc(C(N)=O)cc(C)c1C[C@H](N)C(=O)NCC(=O)NCC(=O)N[C@@H](Cc1ccccc1)C(=O)N[C@@H](CC(C)C)C(=O)O (H-[Phe(2,6-Me2,4-CONH2)]GGFL-OH) was run?
**A.** 1300 nM

**Q.** What about the Ki [2] of the same molecule?
**A.** 9.8 nM

**Q.** What about the EC50 [5] of the same molecule?
**A.** 180 nM

**Q.** What about the EC50 [4] of the same molecule?
**A.** 4.1 nM

**Q.** What about the Ki [3] of the same molecule?
**A.** 1 nM

**Q.** Which Ki [1] does the source give for CSCC[C@H](NC(=O)[C@H](Cc1ccccc1)NC(=O)CNC(=O)CNC(=O)[C@@H](N)Cc1ccc(O)cc1)C(=O)O here?
**A.** > 10000 nM

**Q.** For CC(C)C[C@@H](NC(=O)[C@H](Cc1ccccc1)NC(=O)CNC(=O)[C@@H](C)NC(=O)[C@@H](N)Cc1cccc(C(N)=O)c1)C(=O)O, which Ki [1] is on record?
**A.** > 10000 nM

**Q.** And the Ki [2]?
**A.** 560 nM

**Q.** What about the EC50 [4] of the same molecule?
**A.** 1700 nM

**Q.** And the Ki [3]?
**A.** 170 nM

**Q.** How did the Ki [1] turn out when CC(C)C[C@@H](NC(=O)[C@H](Cc1ccccc1)NC(=O)CNC(=O)[C@@H](C)NC(=O)[C@@H](N)Cc1ccc(N)cc1)C(=O)O was run?
**A.** > 10000 nM

**Q.** What about the Ki [2] of the same molecule?
**A.** 1400 nM

**Q.** What about the EC50 [4] of the same molecule?
**A.** 74 nM

**Q.** What about the Ki [3] of the same molecule?
**A.** 19 nM

**Q.** What does the source list for CC(C)C[C@H](NC(=O)[C@H](Cc1ccccc1)NC(=O)CNC(=O)CNC(=O)[C@@H](N)Cc1cccc(C(N)=O)c1)C(=O)O (H-[Phe(3-CONH2)]GGFL-OH)?
**A.** Ki [1]: > 10000 nM; Ki [2]: > 10000 nM; Ki [3]: 475 nM

**Q.** What does the source list for CSCC[C@H](NC(=O)[C@H](Cc1ccccc1)NC(=O)CNC(=O)CNC(=O)[C@@H](N)Cc1ccc(C(N)=O)cc1)C(N)=O (H-[Phe(4-CONH2)]GGFM-NH2)?
**A.** Ki [1]: 460 nM; Ki [2]: 18 nM; EC50 [5]: 270 nM; EC50 [4]: 10 nM; Ki [3]: 1.3 nM

**Q.** How did the Ki [1] turn out when CC(C)C[C@H](NC(=O)[C@H](Cc1ccccc1)NC(=O)CNC(=O)[C@@H](CO)NC(=O)[C@@H](N)Cc1ccc2nc(N)sc2c1)C(=O)N[C@H](C(=O)O)[C@@H](C)O was run?
**A.** > 10000 nM

**Q.** What about the Ki [2] of the same molecule?
**A.** 640 nM

**Q.** What about the EC50 [4] of the same molecule?
**A.** 97 nM

**Q.** What about the Ki [3] of the same molecule?
**A.** 3.8 nM

**Q.** Which Ki [1] does the source give for CSCC[C@H](NC(=O)[C@H](Cc1ccccc1)NC(=O)CNC(=O)CNC(=O)[C@@H](N)Cc1ccc(O)cc1)C(N)=O here?
**A.** 210 nM

**Q.** What does the source list for CC(C)C[C@@H](NC(=O)[C@H](Cc1ccccc1)NC(=O)CNC(=O)[C@@H](C)NC(=O)[C@@H](N)Cc1ccc(C(=O)O)cc1)C(=O)O?
**A.** Ki [1]: > 10000 nM; Ki [2]: > 10000 nM; Ki [3]: 1100 nM

**Q.** CSCC[C@H](NC(=O)[C@H](Cc1ccccc1)NC(=O)CNC(=O)CNC(=O)[C@@H](N)Cc1ccc(C(N)=O)cc1)C(=O)O (H-[Phe(4-CONH2)]GGFM-OH) was tested. Which Ki [1] did it give?
**A.** 1030 nM

**Q.** And the Ki [2]?
**A.** 28 nM

**Q.** What about the EC50 [5] of the same molecule?
**A.** 140 nM

**Q.** And the EC50 [4]?
**A.** 5.2 nM

**Q.** And the Ki [3]?
**A.** 1.8 nM
